This is an account of results in ChEMBL document CHEMBL1649507, “CMY-29 and CMY-30, two novel plasmid-mediated AmpC beta-lactamases” (2009).

As a reminder, the MIC is the lowest concentration found to suppress growth. Read a low MIC as greater potency.

In brackets after ≈: the same amount, converted by molar mass. Where only a bound is given, the exact number is not on record here.

Holding throughout (assay type): functional
The subject of experiment [1] is Escherichia coli. Kind of experiment: Antibacterial activity against Escherichia coli isolate ARL05-705 harboring beta-lactamase CMY 7 by broth microdilution method.
Experiment [2] has as its system Escherichia coli. Nature of the experiment: Antibacterial activity against Escherichia coli isolate ARL06-39 harboring beta-lactamase CMY 30 by broth microdilution method. On the technique in general: Dilution methods test growth across graded concentrations, often in twofold steps.
For experiment [3], the system named is Escherichia coli. Nature of the experiment: Antibacterial activity against Escherichia coli isolate ARL05-909 harboring beta-lactamase CMY 29 by broth microdilution method.
The test system of experiment [4] is Escherichia coli. Nature of the experiment: Antibacterial activity against Escherichia coli isolate ARL04-413 harboring beta-lactamase CMY 2 by broth microdilution method.

Take `CO/N=C(\C(=O)N[C@@H]1C(=O)N2C(C(=O)[O-])=C(C[N+]3(C)CCCC3)CS[C@H]12)c1csc(N)n1` [CEFEPIME]: the MIC in experiment [1] amounted to 0.25 µg/mL (≈ 0.52 µM); in experiment [2] it was 0.5 µg/mL (≈ 1.04 µM); in experiment [3], 1 µg/mL (≈ 2.08 µM); in experiment [4], 0.25 µg/mL (≈ 0.52 µM).
On to `CO[C@@]1(NC(=O)Cc2cccs2)C(=O)N2C(C(=O)O)=C(COC(N)=O)CS[C@@H]21` [CEFOXITIN], for which the MIC was 64 µg/mL (≈ 150 µM) in experiment [1], 128 µg/mL (≈ 299 µM) in experiment [2], at least 256 µg/mL in experiment [3] and at least 256 µg/mL in experiment [4].
With `CC(C)(O/N=C(\C(=O)N[C@@H]1C(=O)N2C(C(=O)[O-])=C(C[n+]3ccccc3)CS[C@H]12)c1csc(N)n1)C(=O)O` [CEFTAZIDIME], the minimum inhibitory concentration (MIC) in experiment [1] is 64 µg/mL (≈ 117 µM); in experiment [2] it was 32 µg/mL (≈ 58.5 µM); in experiment [3] it was at least 128 µg/mL; in experiment [4], 64 µg/mL (≈ 117 µM).
Regarding `CO/N=C(\C(=O)N[C@@H]1C(=O)N2C(C(=O)O)=C(CSc3nc(=O)c(O)nn3C)CS[C@H]12)c1csc(N)n1` [CEFTRIAXONE], the MIC in experiment [1] is 32 µg/mL (≈ 57.7 µM); in experiment [2], 32 µg/mL (≈ 57.7 µM); in experiment [3] it was 128 µg/mL (≈ 231 µM); in experiment [4], 32 µg/mL (≈ 57.7 µM).
For the molecule `C[C@@H](O)[C@H]1C(=O)N2C(C(=O)O)=C(SCCNC=N)C[C@H]12` [IMIPENEM ANHYDROUS], the MIC stood at 0.5 µg/mL (≈ 1.67 µM) in experiment [1], 0.5 µg/mL (≈ 1.67 µM) in experiment [2], 0.5 µg/mL (≈ 1.67 µM) in experiment [3] and 0.25 µg/mL (≈ 0.835 µM) in experiment [4].
Take `C[C@@H](O)[C@H]1C(=O)N2C(C(=O)O)=C(S[C@@H]3CN[C@H](C(=O)N(C)C)C3)[C@H](C)[C@H]12` [MEROPENEM]: the MIC in experiment [1], in experiment [2], in experiment [3] and in experiment [4] was at most 0.12 µg/mL each time.
